{
  "source": "ChEMBL document CHEMBL4732026",
  "about": "“Benzimidazole-1,2,3-triazole hybrid molecules: synthesis and study of their interaction with G-quadruplex DNA” (RSC Med Chem, 2021)",
  "key": {"dsDNA [1]": {"tested_on": "dsDNA", "assay": "Binding affinity to double strand DNA (unknown origin) assessed as hypsochromic shift at 8.5 uM incubated for 5 mins by UV- vis spectrophotometric analysis", "format": "nucleic-acid assay"}, "Quadruplex DNA [2]": {"target": "Quadruplex DNA", "assay": "Binding affinity to c-Myc G-quadruplex DNA (unknown origin) assessed as dissociation constant incubated for 5 mins by UV- vis spectrophotometric analysis", "format": "nucleic-acid assay"}, "dsDNA [3]": {"tested_on": "dsDNA", "assay": "Binding affinity to double strand DNA (unknown origin) assessed as hyperchromicity at 8.5 uM incubated for 5 mins by UV- vis spectrophotometric analysis", "format": "nucleic-acid assay"}, "Quadruplex DNA [4]": {"tested_on": "Quadruplex DNA", "assay": "Binding affinity to Tel Q G-quadruplex DNA (unknown origin) assessed as hyperchromicity at 8.5 uM incubated for 5 mins by UV- vis spectrophotometric analysis", "format": "nucleic-acid assay"}, "CHO-K1 [5]": {"tested_on": "CHO-K1", "assay": "Induction of apoptosis in CHO-K1 cells assessed as apoptic cells at 65 uM after 48 hrs by Annexin V based flow cytometric analysis (reference value: 6.29%)", "format": "cell-based, Cricetulus griseus", "conditions": "chinese hamster, cho-k1, 48 h"}, "Quadruplex DNA [6]": {"tested_on": "Quadruplex DNA", "assay": "Stabilization of c-Myc G-quadruplex DNA (unknown origin) assessed as change in melting temperature at 8.5 uM incubated for 5 mins by UV-visible thermal denaturation study", "format": "nucleic-acid assay"}, "PC-3 [7]": {"tested_on": "PC-3", "assay": "Induction of cell cycle arrest in human PC3 cells assessed as accumulation at Sub G1 phase at 50 uM after 48 hrs by propidium iodide staining based flow cytometry (reference value: 0.1%)", "format": "functional"}, "PC-3 [8]": {"tested_on": "PC-3", "assay": "Induction of apoptosis in human PC-3 cells assessed as early apoptic cells at 55 uM after 48 hrs by Annexin V based flow cytometric analysis (reference value: 0.40%)", "format": "functional"}, "PC-3 [9]": {"tested_on": "PC-3", "assay": "Induction of apoptosis in human PC-3 cells assessed as necrotic cells at 55 uM after 48 hrs by Annexin V based flow cytometric analysis (reference value: 0.79%)", "format": "functional"}, "CHO-K1 [10]": {"tested_on": "CHO-K1", "assay": "Induction of apoptosis in CHO-K1 cells assessed as early apoptic cells at 65 uM after 48 hrs by Annexin V based flow cytometric analysis (reference value: 4.58%)", "format": "cell-based, Cricetulus griseus", "conditions": "chinese hamster, cho-k1, 48 h"}, "Quadruplex DNA [11]": {"tested_on": "Quadruplex DNA", "assay": "Binding affinity to c-Myc G-quadruplex DNA (unknown origin) assessed as increase in intensity of positive and negative peaks at 10 to 40 uM by circular dichroism spectra", "format": "nucleic-acid assay", "conditions": "dose 10-40 µM"}, "dsDNA [12]": {"tested_on": "dsDNA", "assay": "Stabilization of double strand DNA (unknown origin) assessed as increase in life time of DNA and compound complex at 8.5 uM incubated for 5 mins by fluorescence lifetime study", "format": "nucleic-acid assay"}, "Quadruplex DNA [13]": {"tested_on": "Quadruplex DNA", "assay": "Binding affinity to Tel Q G-quadruplex DNA (unknown origin) assessed as increase in intensity of positive and negative peaks at 10 to 40 uM by circular dichroism spectra", "format": "nucleic-acid assay", "conditions": "dose 10-40 µM"}, "PC-3 [14]": {"tested_on": "PC-3", "assay": "Induction of cell cycle arrest in human PC3 cells assessed as accumulation at G1 phase at 50 uM after 48 hrs by propidium iodide staining based flow cytometry (reference value: 5%)", "format": "functional"}},
  "note": "Activity calls are given as the source filed them. No cut-off for these calls is given here.",
  "data": [
    {"smiles": "O=C(Cn1cc(CSc2nc3cc(OC(F)F)ccc3[nH]2)nn1)NC1CCCCC1", "values": [
      {"measurement": "Activity", "setting": "dsDNA [1]", "value": 5.6, "unit": "nm"},
      {"measurement": "Kd", "setting": "Quadruplex DNA [2]", "value": 113, "unit": "µM"},
      {"measurement": "Activity", "setting": "dsDNA [3]", "value": 13.1, "unit": "%"},
      {"measurement": "Activity", "setting": "Quadruplex DNA [4]", "value": 37.1, "unit": "%"},
      {"measurement": "Activity", "setting": "CHO-K1 [5]", "value": 15.63, "unit": "%"},
      {"measurement": "ΔTm", "setting": "Quadruplex DNA [6]", "value": 5, "unit": "°C"},
      {"measurement": "Activity", "setting": "PC-3 [7]", "value": 0.1, "unit": "%"},
      {"measurement": "Activity", "setting": "PC-3 [8]", "value": 2.2, "unit": "%"},
      {"measurement": "Activity", "setting": "PC-3 [9]", "value": 2.64, "unit": "%"},
      {"measurement": "Activity", "setting": "CHO-K1 [10]", "value": 11.75, "unit": "%"},
      {"measurement": "Activity", "setting": "Quadruplex DNA [11]", "value": "Active"},
      {"measurement": "Activity", "setting": "dsDNA [12]", "value": "Active"},
      {"measurement": "Activity", "setting": "Quadruplex DNA [13]", "value": "Active"},
      {"measurement": "Activity", "setting": "PC-3 [14]", "value": 8.9, "unit": "%"}
    ]}
  ]
}
